The source made the active and inactive calls. How the source made its calls: active means viability on the fitted dose curve at most 10% of control; inactive means the rest.
Test system: NCI-H719 tumor spheroids, viability
Experiment: Anticancer human tumor NCI-H719 cell line growth inhibition;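 on IC50: spheroids exposed to compounds for seven days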;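 on viability, T/C: spheroids exposed to compounds for seven days; percent viability relative to DMSO vehicle control as 100%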
Conditions: spheroids with HUVEC and MSC; for IC50: curve of first compound; for viability, T/C: stronger effect = lower value
In short: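 Complex tumor spheroids combined malignant cells with endothelial cells and mesenchymal stem cells. DNA-damaging drugs and DNA repair inhibitors were tested alone and in combination, at half-log dilutions down from clinical Cmax (top 10 microM if Cmax unknown), 0.25% DMSO final.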

Work on `COc1cc(C)[nH]c(=O)c1CN1CCc2c(Cl)cc(C(OC)C3COC3)c(Cl)c2C1=O` (stereo not given) + Cn1nnc2c(C(N)=O)ncn2c1=O yielded an IC50 (second compound 1 µM) of over 10 µM, an IC50 (second compound 3.16 µM) of over 10 µM and an IC50 (second compound 10 µM) of over 10 µM. For the same compound, the IC50 (second compound 31.6 µM) was over 10 µM, the IC50 (second compound 100 µM) was over 10 µM and the viability, T/C (second compound 1 µM, first compound 0.0316 µM) was 101%. For the same compound, the viability, T/C (second compound 1 µM, first compound 0.1 µM) was 101%, the outcome (second compound 1 µM, first compound 0.316 µM) was “inactive” and the viability, T/C (second compound 1 µM, first compound 1 µM) was 111%. It also gave a viability, T/C (second compound 1 µM, first compound 3.16 µM) of 108%, a viability, T/C (second compound 1 µM, first compound 10 µM) of 103% and a viability, T/C (second compound 3.16 µM, first compound 0.0316 µM) of 103%. It also gave a viability, T/C (second compound 3.16 µM, first compound 0.1 µM) of 108%, a viability, T/C (second compound 3.16 µM, first compound 0.316 µM) of 119% and a viability, T/C (second compound 3.16 µM, first compound 1 µM) of 117%. For the same compound, the viability, T/C (second compound 3.16 µM, first compound 3.16 µM) was 112%, the viability, T/C (second compound 3.16 µM, first compound 10 µM) was 110% and the viability, T/C (second compound 10 µM, first compound 0.0316 µM) was 110%. For the same compound, the viability, T/C (second compound 10 µM, first compound 0.1 µM) was 110%, the viability, T/C (second compound 10 µM, first compound 0.316 µM) was 122% and the viability, T/C (second compound 10 µM, first compound 1 µM) was 121%. It also gave a viability, T/C (second compound 10 µM, first compound 3.16 µM) of 125%, a viability, T/C (second compound 10 µM, first compound 10 µM) of 118% and a viability, T/C (second compound 31.6 µM, first compound 0.0316 µM) of 118%. The viability, T/C (second compound 31.6 µM, first compound 0.1 µM) was 111%, the viability, T/C (second compound 31.6 µM, first compound 0.316 µM) was 111% and the viability, T/C (second compound 31.6 µM, first compound 1 µM) was 125%. For the same compound, the viability, T/C (second compound 31.6 µM, first compound 3.16 µM) was 118%, the viability, T/C (second compound 31.6 µM, first compound 10 µM) was 119% and the viability, T/C (second compound 100 µM, first compound 0.0316 µM) was 109%. For the same compound, the viability, T/C (second compound 100 µM, first compound 0.1 µM) was 101%, the viability, T/C (second compound 100 µM, first compound 0.316 µM) was 99.7% and the viability, T/C (second compound 100 µM, first compound 1 µM) was 109%. For the same compound, the viability, T/C (second compound 100 µM, first compound 3.16 µM) was 115% and the viability, T/C (second compound 100 µM, first compound 10 µM) was 109%.

— PubChem BioAssay AID1845212 (Molecular Pharmacology Branch, DTP, NCI, 2023)
